In paper PMC10669037, “CRISPR/Cas12a Collateral Cleavage Activity for Sensitive 3′–5′ Exonuclease Assay” (Biosensors, 2023) one finds IC50 data, which are given here for 1 compound.

The experiment has as its system T1, Exonuclease III (Exo III).
T1 construct: gene xthA; commercial enzyme from New England BioLabs
Put plainly: hairpin DNA digestion, coupled to Cas12a collateral cleavage of fluorescent reporter. The experiment is classed as biochemical. Conditions: acts by metal chelation, not a specific binder; Exo III 5 U/mL, 10 min preincubation, hairpin probe substrate, magnesium acetate buffer pH 7.9, 37 °C; EDTA carried into the Cas12a read-out step.

The term IC50 denotes the point on the concentration scale where inhibition reaches its midpoint. For `O=C(O)CN(CCN(CC(=O)O)CC(=O)O)CC(=O)O` [EDTA], the IC50 was found to be 6.34 mM.
